# Values quoted from earlier work in patent US20090196940A1, “COMPOSITIONS AND METHODS FOR SUPPORTING HEAT SHOCK FUNCTION” (priority 2007, published 2009).
# Tests used:
# [1] = test system: heat shock proteins / HSF1; details: in vitro, treated cells
# HSP70 = details: mice, administration of schisandrin B
# [2] = test system: cultured mouse skeletal cells (HSP72)
compound,measurement,setting,value
"C[C@@]12C[C@@]3(O)O[C@@H](O1)[C@]1(COC(=O)c4ccccc4)[C@H]3C[C@@]12O[C@@H]1O[C@H](CO)[C@@H](O)[C@H](O)[C@H]1O [paeoniflorin, Paeoniflorin]",levels of expression of heat shock proteins,[1],enhanced levels of expression of heat shock proteins
same,phosphorylation of HSF1,[1],resulted in phosphorylation of HSF1
"COc1cc2c(c(OC)c1OC)-c1c(cc3c(c1OC)OCO3)CC(C)C(C)C2 (stereo not drawn) [schisandrin B, Schisandrin B]",production of HSP70,HSP70,increase the production of HSP70
Geranylgeranylacetone,differentiation of myoblasts into myotubules,[2],facilitate the differentiation of myoblasts into myotubules
same,expression of HSP72,[2],up-regulated the expression of HSP72
same,muscular protein content,[2],increased muscular protein content in a dose-dependent manner
